Laboratory results: patent US20250101003A1, “SPIROCYCLIC CAV2.3 ANTAGONISTS” (LARIO THERAPEUTICS LIMITED, priority 2021, published 2025)

What follows are molecules tested against Cav2.3 (Homo sapiens, UniProt Q15878) (assay: Human Cav2.3 channel calcium-influx assay). Conditions: HEK-293 T-Rex/Kir2.1/Cav2.3e-β4-α2δ1 cells, Fluo8 fluorescence, without pluronic acid; read-out: Cav2.3 (pIC50) (converted).
Assay type: cell-based
Method: HEK-293 T-Rex cells were transfected with pcDNA3.1-Kir2.1 to generate a stable cell line. After antibiotic selection, the obtained stable pools were analysed using FLIPR^TETRA (membrane potential assay), and a limiting dilution was performed and a HEK-293 T-Rex/Kir2.1 clone was selected. The clone was transfected with pcDNA3.1-Cav2.3e and pBud-Cav-β4-α2δ1 to generate a stable cell line where the Cav2.3e expression is inducible. After antibiotic selection, functional clone pool analysis and two successive limiting dilutions, the final clone underwent a qPCR analysis and a biophysical and pharmacological validation using patch-clamp.
A compound plate, containing 10 test compounds in eight-points dose response with n=4, was prepared. Test compounds dose response curves were prepared in automated fashion in 100% DMSO at CyBio Felix and starting from a stock solution in 100% DMSO; a defined volume was serially moved into destination wells pre-filled with the desired DMSO volume; stock solution concentration volumes were dependent on the final compounds concentrations to be tested and the final DMSO content used in the assay. For the assay test compounds dose response curves ranged from 30 μM and half log dilution with 0.3% final DMSO. In order to obtain the 8-points dose response curve all the concentrations were created by starting from a 10 mM DMSO stock solution and then moving 9.5 μL into a destination well pre-filled with 20.5 μL of 100% DMSO and repeating this step seven times. This initial step was done into 96 MTP plates, 10 compounds/plate. One 384 MTP was then reformatted to contain all the 10 compounds at 8 concentrations, quadruplicate data points. This so obtained 384 MTP compound plate served as source plate in a “mother to child” process with a CyBi®-Well dispenser in which 0.7 μL of compounds were moved into a destination plate pre-filled with 57.6 μL of Tyrode's buffer 0 mM K+, thus obtaining 4× concentrated compounds solution. In columns 1-2 and 23-24 the control wells were added. Both “source” compound plate and “destination” compound plate were barcoded and a relationship between the two plates was thus generated.
The day before the experiment, cells were detached by gentle wash with DPBS, followed by 5 min incubation at 37° C. with Trypsin solution. Detached cells were diluted with OptiMEM+Doxycycline at 0.2 μg/mL, counted and plated in Poly-D-Lysine coated black/clear bottom (15.000 c/well in 20 μl/well) by the use of a MATRIX WellMate dispenser. Plates were placed into a humidified incubator at 37° C. with 5% CO2 until the experimental day. 24 h after seeding 10 μL/well of 1.5× Fluo8 NW dye solution prepared in Tyrode's buffer 0 mM K^+ were added on top of the seeding medium. Cell plates were incubated for 40-60 min at RT in the dark. We then Injected off-line 10 μL/well of test compounds and controls 4× concentrated in Tyrode's Buffer 0 mM K+ with the CyBi®-Well instrument. Cell plates were incubated 3 minutes at RT. Finally, we injected 20 μL/well of 3× concentrated activator solution (K20-Na130-Ca2 buffer: 20 mM KCl, 130 mM NaCl, 2 mM CaCl2, 10 mM HEPES, 10 mM Glucose, final concentrations, prepared starting from “KO-Na150-Ca2” and “K150-Na0-Ca2” buffers) at FDSS7000EX instrument and read emitted fluorescence for 130 seconds.
Data analysis was performed with Genedata Screener® software and reported compounds activity as % effect in relation to the normalization standards. The Kinetic Response Value (KRV) is calculated as follows:
KRV=Maximal fluorescence recorded from second 5 to second 130 minus baseline fluorescence, computed as average from second 1 to second 2, of the kinetic trace. The KRV was normalized versus Neutral Controls and Inhibitor Controls in order to obtain the Activity[%] for each well. […] Therefore, the compound activity values were scaled (based on the two references) to a common range (two-point normalization). […]

Chain of Cav2.3 (Q15878 1-747 limits assumed): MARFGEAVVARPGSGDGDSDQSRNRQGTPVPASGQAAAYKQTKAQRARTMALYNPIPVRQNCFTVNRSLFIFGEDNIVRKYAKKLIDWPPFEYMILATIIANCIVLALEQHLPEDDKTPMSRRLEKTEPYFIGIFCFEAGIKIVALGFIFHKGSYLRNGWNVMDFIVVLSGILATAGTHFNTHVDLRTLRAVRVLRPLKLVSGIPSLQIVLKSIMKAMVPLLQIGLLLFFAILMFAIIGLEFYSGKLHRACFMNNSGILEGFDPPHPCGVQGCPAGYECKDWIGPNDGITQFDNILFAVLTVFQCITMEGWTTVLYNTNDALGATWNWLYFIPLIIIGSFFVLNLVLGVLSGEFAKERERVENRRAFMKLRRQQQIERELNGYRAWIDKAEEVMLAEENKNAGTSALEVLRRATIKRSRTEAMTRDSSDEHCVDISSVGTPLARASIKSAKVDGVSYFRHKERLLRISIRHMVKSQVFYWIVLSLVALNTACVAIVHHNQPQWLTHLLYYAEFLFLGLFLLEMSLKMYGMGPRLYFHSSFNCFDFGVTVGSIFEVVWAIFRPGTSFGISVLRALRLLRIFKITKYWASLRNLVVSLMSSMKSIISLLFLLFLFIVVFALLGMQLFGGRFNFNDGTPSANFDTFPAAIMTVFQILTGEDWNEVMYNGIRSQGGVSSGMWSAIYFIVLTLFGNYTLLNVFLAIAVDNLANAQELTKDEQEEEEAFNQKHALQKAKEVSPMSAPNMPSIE
Chain of Cav2.3 (Q15878 1126-2313 limits assumed): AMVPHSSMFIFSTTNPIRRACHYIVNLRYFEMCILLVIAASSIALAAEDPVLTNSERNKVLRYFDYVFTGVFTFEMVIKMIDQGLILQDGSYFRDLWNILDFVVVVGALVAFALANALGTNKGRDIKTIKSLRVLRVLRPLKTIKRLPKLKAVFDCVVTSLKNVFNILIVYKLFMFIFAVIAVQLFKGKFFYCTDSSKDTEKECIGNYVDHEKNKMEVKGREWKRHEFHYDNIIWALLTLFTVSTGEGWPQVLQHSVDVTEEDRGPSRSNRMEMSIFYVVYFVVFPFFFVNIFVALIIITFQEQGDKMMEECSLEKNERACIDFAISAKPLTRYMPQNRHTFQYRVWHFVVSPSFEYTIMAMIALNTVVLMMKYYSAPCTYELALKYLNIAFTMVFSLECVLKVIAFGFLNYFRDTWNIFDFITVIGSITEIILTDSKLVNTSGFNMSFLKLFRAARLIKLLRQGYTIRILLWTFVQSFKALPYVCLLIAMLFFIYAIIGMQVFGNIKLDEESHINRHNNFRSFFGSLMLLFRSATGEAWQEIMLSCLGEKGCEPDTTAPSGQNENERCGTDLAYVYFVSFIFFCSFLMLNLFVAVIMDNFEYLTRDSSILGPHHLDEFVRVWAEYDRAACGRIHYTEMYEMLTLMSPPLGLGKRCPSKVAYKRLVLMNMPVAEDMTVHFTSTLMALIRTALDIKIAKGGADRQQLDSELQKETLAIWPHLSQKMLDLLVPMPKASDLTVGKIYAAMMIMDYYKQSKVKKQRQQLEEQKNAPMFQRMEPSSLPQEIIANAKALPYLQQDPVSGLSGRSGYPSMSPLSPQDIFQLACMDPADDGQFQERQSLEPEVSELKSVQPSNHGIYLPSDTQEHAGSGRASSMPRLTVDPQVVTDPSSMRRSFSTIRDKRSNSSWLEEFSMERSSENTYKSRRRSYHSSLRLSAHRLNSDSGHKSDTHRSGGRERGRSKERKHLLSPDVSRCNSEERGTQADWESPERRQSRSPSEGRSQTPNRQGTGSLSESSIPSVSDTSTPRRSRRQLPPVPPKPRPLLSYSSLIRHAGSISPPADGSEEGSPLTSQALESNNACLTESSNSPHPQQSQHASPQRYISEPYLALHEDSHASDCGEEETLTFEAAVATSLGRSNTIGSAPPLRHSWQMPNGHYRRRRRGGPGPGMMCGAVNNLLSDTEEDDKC

IC50 | SMILES
7.24 µM | CC1CC2(CCC2)CN1S(=O)(=O)c1ccc2c(c1)OCCO2 (single isomer, unassigned) [Example 6, 6-((2,3-Dihydrobenzo[b][1,4]dioxin-6-yl)sulfonyl)-7-methyl-6-azaspiro[3.4]octane]
2.19 µM | CC1CC2(CCC2)CN1S(=O)(=O)c1ccc2c(c1)OCCO2 (single isomer, unassigned) [Example 7, 6-((2,3-dihydrobenzo[b][1,4]dioxin-6-yl)sulfonyl)-7-methyl-6-azaspiro[3.4]octane]
7.94 µM | CC1CC2(CCC2)CN1S(=O)(=O)c1ccc(C#N)s1 (single isomer, unassigned) [Example 9, 5-((7-Methyl-6-azaspiro[3.4]octan-6-yl)sulfonyl)thiophene-2-carbonitrile]
2.69 µM | CC1CC2(CCC2)CN1S(=O)(=O)c1ccc(C#N)s1 (single isomer, unassigned) [Example 10, 5-((7-methyl-6-azaspiro[3.4]octan-6-yl)sulfonyl)thiophene-2-carbonitrile]
6.61 µM | CC1CC2(CCC2)CN1S(=O)(=O)c1ccncc1 (single isomer, unassigned) [Example 12, 7-Methyl-6-(pyridin-4-ylsulfonyl)-6-azaspiro[3.4]octane]
1.66 µM | CC1CC2(CCC2)CN1S(=O)(=O)c1ccncc1 (single isomer, unassigned) [Example 13, 7-methyl-6-(pyridin-4-ylsulfonyl)-6-azaspiro[3.4]octane]
4.79 µM | CC1CC2(CCC2)CN1S(=O)(=O)c1ccc2ccoc2c1 (single isomer, unassigned) [Example 16, 6-(Benzofuran-6-ylsulfonyl)-7-methyl-6-azaspiro[3.4]octane]
1.32 µM | CC1CC2(CCC2)CN1S(=O)(=O)c1ccc2ccoc2c1 (single isomer, unassigned) [Example 17, 6-(benzofuran-6-ylsulfonyl)-7-methyl-6-azaspiro[3.4]octane]
1.78 µM | CC1CC2(CCC2)CN1S(=O)(=O)c1ccc2c(c1)CN(C(=O)C(F)(F)F)CC2 (single isomer, unassigned) [Example 19, 2,2,2-Trifluoro-1-(7-((7-methyl-6-azaspiro[3.4]octan-6-yl)sulfonyl)-3,4-dihydroisoquinolin-2(1H)-yl)ethan-1-one]
4.27 µM | CC1CC2(CCC2)CN1S(=O)(=O)c1ccc2c(c1)CN(C(=O)C(F)(F)F)CC2 (single isomer, unassigned) [Example 20, 2,2,2-trifluoro-1-(7-((7-methyl-6-azaspiro[3.4]octan-6-yl)sulfonyl)-3,4-dihydroisoquinolin-2(1H)-yl)ethan-1-one]
1.62 µM | CCOC(=O)N1CCc2ccc(S(=O)(=O)N3CC4(CCC4)CC3C)cc2C1 (single isomer, unassigned) [Example 24, Ethyl 7-((7-methyl-6-azaspiro[3.4]octan-6-yl)sulfonyl)-3,4-dihydroisoquinoline-2(1H)-carboxylate]
7.94 µM | CC1CC2(CCC2)CN1S(=O)(=O)c1ccco1 (single isomer, unassigned) [Example 37, 6-(Furan-2-ylsulfonyl)-7-methyl-6-azaspiro[3.4]octane]
3.39 µM | CC1CC2(CCC2)CN1S(=O)(=O)c1ccco1 (single isomer, unassigned) [Example 38, 6-(furan-2-ylsulfonyl)-7-methyl-6-azaspiro[3.4]octane]
7.76 µM | CC1CC2(CCC2)CN1S(=O)(=O)c1ccccc1 (single isomer, unassigned) [Example 46, 7-Methyl-6-(phenylsulfonyl)-6-azaspiro[3.4]octane]
1.58 µM | CC1CC2(CCC2)CN1S(=O)(=O)c1ccccc1 (single isomer, unassigned) [Example 47, 7-methyl-6-(phenylsulfonyl)-6-azaspiro[3.4]octane]
8.13 µM | Cc1ccc(S(=O)(=O)N2CC3(CCC3)CC2C)o1 (single isomer, unassigned) [Example 54, 7-Methyl-6-((5-methylfuran-2-yl)sulfonyl)-6-azaspiro[3.4]octane]
4.07 µM | Cc1ccc(S(=O)(=O)N2CC3(CCC3)CC2C)o1 (single isomer, unassigned) [Example 55, 7-methyl-6-((5-methylfuran-2-yl)sulfonyl)-6-azaspiro[3.4]octane]
5.13 µM | CC1CC2(CCC2)CN1S(=O)(=O)c1cc2oc(=O)[nH]c2cc1Cl (single isomer, unassigned) [Example 57, 5-Chloro-6-((7-methyl-6-azaspiro[3.4]octan-6-yl)sulfonyl)benzo[d]oxazol-2(3H)-one]
11.5 µM | CC1CC2(CCC2)CN1S(=O)(=O)c1cc2oc(=O)[nH]c2cc1Cl (single isomer, unassigned) [Example 58, 5-chloro-6-((7-methyl-6-azaspiro[3.4]octan-6-yl)sulfonyl)benzo[d]oxazol-2(3H)-one]
0.676 µM | CCC1CC2(CCC2)CN1S(=O)(=O)c1ccc2c(c1)S(=O)(=O)CC2 (single isomer, unassigned) [Example 62, 6-((7-Ethyl-6-azaspiro[3.4]octan-6-yl)sulfonyl)-2,3-dihydrobenzo[b]thiophene 1,1-dioxide]
5.62 µM | CCC1CC2(CCC2)CN1S(=O)(=O)c1ccc2c(c1)S(=O)(=O)CC2 (single isomer, unassigned) [Example 63, 6-((7-ethyl-6-azaspiro[3.4]octan-6-yl)sulfonyl)-2,3-dihydrobenzo[b]thiophene 1,1-dioxide]
9.55 µM | CCC1CC2(CCC2)CN1S(=O)(=O)c1cccs1 (single isomer, unassigned) [Example 70, 7-Ethyl-6-(thiophen-2-ylsulfonyl)-6-azaspiro[3.4]octane]
13.8 µM | Cc1ccc(S(=O)(=O)N2CC3(CCC3)CC2C)s1 (single isomer, unassigned) [Example 77, 7-Methyl-6-((5-methylthiophen-2-yl)sulfonyl)-6-azaspiro[3.4]octane]
3.63 µM | Cc1ccc(S(=O)(=O)N2CC3(CCC3)CC2C)s1 (single isomer, unassigned) [Example 78, 7-methyl-6-((5-methylthiophen-2-yl)sulfonyl)-6-azaspiro[3.4]octane]
4.57 µM | Cc1ccnc2cc(S(=O)(=O)N3CC4(CCC4)CC3C)ccc12 (single isomer, unassigned) [Example 81, 4-Methyl-7-((7-methyl-6-azaspiro[3.4]octan-6-yl)sulfonyl)quinoline]
10.7 µM | Cc1ccnc2cc(S(=O)(=O)N3CC4(CCC4)CC3C)ccc12 (single isomer, unassigned) [Example 82, 4-methyl-7-((7-methyl-6-azaspiro[3.4]octan-6-yl)sulfonyl)quinoline]
14.5 µM | CCC1CC2(CCCC2)CN1S(=O)(=O)c1cccs1 (single isomer, unassigned) [Example 98, 3-Ethyl-2-(thiophen-2-ylsulfonyl)-2-azaspiro[4.4]nonane]
1.91 µM | CCC1CC2(CCCC2)CN1S(=O)(=O)c1cccs1 (single isomer, unassigned) [Example 99, 3-ethyl-2-(thiophen-2-ylsulfonyl)-2-azaspiro[4.4]nonane]
8.32 µM | CC1CC2(CCC2)CN1S(=O)(=O)c1cccs1 (single isomer, unassigned) [Example 103, 7-Methyl-6-(thiophen-2-ylsulfonyl)-6-azaspiro[3.4]octane]
2.19 µM | Cc1nc(C)c(S(=O)(=O)N2CC3(CCC3)CC2C)s1 (single isomer, unassigned) [Example 106, 2,4-Dimethyl-5-((7-methyl-6-azaspiro[3.4]octan-6-yl)sulfonyl)thiazole]
